Measured values: publication PMC11025159 (Journal of Translational Medicine, 2024)

Test: Body weight, biochemical and haematological parameters in DHT-induced AGA mice (0.5% testosterone then topical treatment)
Assay type: in vivo, C57BL/6J mice
Settings: for LYMPH: unit assumed
Method: The experiments were performed on C57BL/6 J and Athymic nude mice (NU/J Foxn1^nu) of 6–7 weeks of age obtained from Animal House Facility, CSIR-Indian Institute of Integrative Medicine (IIIM), Jammu, India. […] The animals were provided with ad libitum feed (standard pellet diet) and autoclaved RO water throughout the study. The body weight of mice was measured after seven days before treatment.
C57BL/6 J mice (male) were obtained from CSIR-IIIM Animal House at 7 weeks of age. We used a DHT-induced AGA mice model for this study. […] At the end of the experiment, skin samples were collected and preserved in 10% neutral buffered formalin for tissue sectioning and staining using haematoxylin and eosin (H&E). The histopathological examinations were performed under the 10× and 40× objectives of light microscope (Magnus, Mx21i).
Every two weeks during the experimental period, mice were anesthetized, and the blood samples were collected into tubes containing heparin sodium to detect the total and differential white blood cells, haemoglobin, red blood cell, platelet count, mean corpuscular haemoglobin, mean corpuscular volume, red blood cell volume, mean platelet volume, and analyzed using an automated haematology analyzer (Model: XT1800i; Make: Sysmex).
Every two weeks during the experimental period, mice and rats were anesthetized, and blood samples were collected into non-heparinized tubes and then centrifuged at 1000 rpm at 4 °C for 10 min to obtain the serum. The biochemical parameters, including total protein, aspartate aminotransferase, alanine aminotransferase, total protein, albumin, total bilirubin, direct bilirubin, glucose, total cholesterol, triglyceride, low-density lipoprotein, high-density lipoprotein, creatinine, and uric acid, were measured using an automatic biochemical analyzer (Model: EM360; Make: Erba Mannheim).

SMILES: CCS(=O)(=O)N1CC(CC#N)(n2cc(-c3ncnc4[nH]ccc34)cn2)C1 [Baricitinib, baricitinib, reference compound]
- ALP (Day 21, 0.02 mg/Kg): 108 U/L
- ALT/SGPT (Day 21, 0.02 mg/Kg): 74 U/L
- AST/SGOT (Day 21, 0.02 mg/Kg): 143 U/L
- Cholesterol (Day 21, 0.02 mg/Kg): 171 mg/dL
- Creatine (Day 21, 0.02 mg/Kg): 0.72 mg/dL
- HCT (Day 21, 0.02 mg/Kg): 45%
- HDL (Day 21, 0.02 mg/Kg): 105 mg/dL
- LDL (Day 21, 0.02 mg/Kg): 101 mg/dL
- MCHC (Day 21, 0.02 mg/Kg): 28 g/dL
- MCV (Day 21, 0.02 mg/Kg): 52 fL
- NEUT (Day 21, 0.02 mg/Kg): 30.5%
- PLT (Day 21, 0.02 mg/Kg): 946 103/μl
- RBC (Day 21, 0.02 mg/Kg): 8.2 1012/l
- Total protein (Day 21, 0.02 mg/Kg): 5.0 g/dL
- Triglyceride (Day 21, 0.02 mg/Kg): 98 mg/dL
- Urea (Day 21, 0.02 mg/Kg): 69 mg/dL
- WBC (Day 21, 0.02 mg/Kg): 4.3 103/μl
- LYMPH (Day 21, 0.02 mg/Kg): 67.4%
- ALP (Day 21, 0.04 mg/Kg): 99 U/L
- ALT/SGPT (Day 21, 0.04 mg/Kg): 64 U/L
- AST/SGOT (Day 21, 0.04 mg/Kg): 98 U/L
- Cholesterol (Day 21, 0.04 mg/Kg): 171 mg/dL
- Creatine (Day 21, 0.04 mg/Kg): 0.69 mg/dL
- HCT (Day 21, 0.04 mg/Kg): 43%
- HDL (Day 21, 0.04 mg/Kg): 122 mg/dL
- LDL (Day 21, 0.04 mg/Kg): 106 mg/dL
- MCHC (Day 21, 0.04 mg/Kg): 29 g/dL
- MCV (Day 21, 0.04 mg/Kg): 52 fL
- NEUT (Day 21, 0.04 mg/Kg): 30.5%
- PLT (Day 21, 0.04 mg/Kg): 1082 103/μl
- RBC (Day 21, 0.04 mg/Kg): 8.6 1012/l
- Total protein (Day 21, 0.04 mg/Kg): 4.9 g/dL
- Triglyceride (Day 21, 0.04 mg/Kg): 139 mg/dL
- Urea (Day 21, 0.04 mg/Kg): 54 mg/dL
- WBC (Day 21, 0.04 mg/Kg): 3.6 103/μl
- LYMPH (Day 21, 0.04 mg/Kg): 67.4%
- ALP (Day 21, 0.1mg/Kg): 144 U/L
- ALT/SGPT (Day 21, 0.1mg/Kg): 92 U/L
- AST/SGOT (Day 21, 0.1mg/Kg): 104 U/L
- Cholesterol (Day 21, 0.1mg/Kg): 173 mg/dL
- Creatine (Day 21, 0.1mg/Kg): 0.48 mg/dL
- HCT (Day 21, 0.1mg/Kg): 48%
- HDL (Day 21, 0.1mg/Kg): 108 mg/dL
- LDL (Day 21, 0.1mg/Kg): 100 mg/dL
- MCHC (Day 21, 0.1mg/Kg): 29 g/dL
- MCV (Day 21, 0.1mg/Kg): 50 fL
- NEUT (Day 21, 0.1mg/Kg): 26.8%
- PLT (Day 21, 0.1mg/Kg): 1149 103/μl
- RBC (Day 21, 0.1mg/Kg): 9.6 1012/l
- Total protein (Day 21, 0.1mg/Kg): 5.0 g/dL
- Triglyceride (Day 21, 0.1mg/Kg): 119 mg/dL
- Urea (Day 21, 0.1mg/Kg): 51 mg/dL
- WBC (Day 21, 0.1mg/Kg): 6.4 103/μl
- LYMPH (Day 21, 0.1mg/Kg): 71.3%
- ALP (Day 28, 0.02 mg/Kg): 159 U/L
- ALT/SGPT (Day 28, 0.02 mg/Kg): 71 U/L
- AST/SGOT (Day 28, 0.02 mg/Kg): 129 U/L
- Cholesterol (Day 28, 0.02 mg/Kg): 213 mg/dL
- Creatine (Day 28, 0.02 mg/Kg): 0.16 mg/dL
- HCT (Day 28, 0.02 mg/Kg): 48.0%
- HDL (Day 28, 0.02 mg/Kg): 173 mg/dL
- HGB (Day 28, 0.02 mg/Kg): 15 g/dL
- LDL (Day 28, 0.02 mg/Kg): 98 mg/dL
- MCHC (Day 28, 0.02 mg/Kg): 30.0 g/dL
- MCV (Day 28, 0.02 mg/Kg): 62 fL
- PLT (Day 28, 0.02 mg/Kg): 1724 103/μl
- RBC (Day 28, 0.02 mg/Kg): 7.8 106/μl
- Total protein (Day 28, 0.02 mg/Kg): 5.8 g/dL
- Triglyceride (Day 28, 0.02 mg/Kg): 90 mg/dL
- Urea (Day 28, 0.02 mg/Kg): 60 mg/dL
- WBC (Day 28, 0.02 mg/Kg): 6.3 103/μl
- ALP (Day 28, 0.04 mg/Kg): 174 U/L
- ALT/SGPT (Day 28, 0.04 mg/Kg): 88 U/L
- AST/SGOT (Day 28, 0.04 mg/Kg): 123 U/L
- Cholesterol (Day 28, 0.04 mg/Kg): 182 mg/dL
- Creatine (Day 28, 0.04 mg/Kg): 0.11 mg/dL
- HCT (Day 28, 0.04 mg/Kg): 48.0%
- HDL (Day 28, 0.04 mg/Kg): 143 mg/dL
- HGB (Day 28, 0.04 mg/Kg): 14 g/dL
- LDL (Day 28, 0.04 mg/Kg): 85 mg/dL
- MCHC (Day 28, 0.04 mg/Kg): 29.0 g/dL
- MCV (Day 28, 0.04 mg/Kg): 60 fL
- PLT (Day 28, 0.04 mg/Kg): 1427 103/μl
- RBC (Day 28, 0.04 mg/Kg): 8.0 106/μl
- Total protein (Day 28, 0.04 mg/Kg): 6.3 g/dL
- Triglyceride (Day 28, 0.04 mg/Kg): 123 mg/dL
- Urea (Day 28, 0.04 mg/Kg): 66 mg/dL
- WBC (Day 28, 0.04 mg/Kg): 3.1 103/μl
- ALP (Day 28, 0.1mg/Kg): 184 U/L
- ALT/SGPT (Day 28, 0.1mg/Kg): 74 U/L
- AST/SGOT (Day 28, 0.1mg/Kg): 86 U/L
- Cholesterol (Day 28, 0.1mg/Kg): 164 mg/dL
- Creatine (Day 28, 0.1mg/Kg): 0.13 mg/dL
- HCT (Day 28, 0.1mg/Kg): 43.0%
- HDL (Day 28, 0.1mg/Kg): 134 mg/dL
- HGB (Day 28, 0.1mg/Kg): 14 g/dL
- LDL (Day 28, 0.1mg/Kg): 78 mg/dL
- MCHC (Day 28, 0.1mg/Kg): 33.0 g/dL
- MCV (Day 28, 0.1mg/Kg): 67 fL
- PLT (Day 28, 0.1mg/Kg): 1394 103/μl
- RBC (Day 28, 0.1mg/Kg): 6.4 106/μl
- Total protein (Day 28, 0.1mg/Kg): 6.2 g/dL
- Triglyceride (Day 28, 0.1mg/Kg): 72 mg/dL
- Urea (Day 28, 0.1mg/Kg): 53 mg/dL
- WBC (Day 28, 0.1mg/Kg): 3.9 103/μl
